Test results taken from patent publication US20260060250A1, “HERBICIDAL PYRIDONE DERIVATIVES” (SYNGENTA CROP PROTECTION AG, priority 2022, published 2026).

How the values were obtained:
Assay type in all cases: in vivo
[1] = tested on: Amaranthus retroflexus (AMARE); assay: Pre-emergence Test (Table B1); conditions: 1000 g/ha, evaluated after 13 days
Zea mays (ZEAMX) [2] = assay: Pre-emergence Test (Table B1); design: key: 5=81-100%; 4=61-80%; 3=41-60%; 2=21-40%; 1=0-20%; 0=inactive; conditions: 1000 g/ha, evaluated after 13 days
Setaria faberi (SETFA) [3] = assay: Pre-emergence Test (Table B1); design: key: 5=81-100%; 4=61-80%; 3=41-60%; 2=21-40%; 1=0-20%; 0=inactive; conditions: 1000 g/ha, evaluated after 13 days
[4] = tested on: Amaranthus palmeri (AMAPA); assay: Pre-emergence Test (Table B1); conditions: 1000 g/ha, evaluated after 13 days
[5] = tested on: Ipomoea hederacea (IPOHE); assay: Pre-emergence Test (Table B1); design: key: 5=81-100%; 4=61-80%; 3=41-60%; 2=21-40%; 1=0-20%; 0=inactive; conditions: 1000 g/ha, evaluated after 13 days
[6] = tested on: Echinochloa crus-galli (ECHCG); assay: Pre-emergence Test (Table B1); design: key: 5=81-100%; 4=61-80%; 3=41-60%; 2=21-40%; 1=0-20%; 0=inactive; conditions: 1000 g/ha, evaluated after 13 days
[7] = tested on: Amaranthus palmeri (AMAPA); assay: Post-emergence Test (Table B2); conditions: evaluated after 13 days
Method: (§1) Seeds of a variety of test species are sown in standard soil in pots (Amaranthus palmeri (AMAPA), Setaria faberi (SETFA), Echinochloa crus-galli (ECHCG), (Amaranthus retroflexus (AMARE), Zea mays (ZEAMX), Ipomoea hederacea (IPOHE)). After 8 days cultivation under controlled conditions in a glasshouse (at 24° C./16° C., day/night; 14 hours light; 65% humidity), the plants are sprayed with an aqueous spray solution derived from the formulation of the technical active ingredient in acetone/water (50:50) solution containing 0.5% Tween 20 (polyoxyethelyene sorbitan monolaurate, CAS RN 9005-64-5). Compounds are applied at 1000 g/ha unless otherwise stated. The test plants are then grown in a glasshouse under controlled conditions in a glasshouse (at 24° C./16° C., day/night; 14 hours light; 65% humidity) and watered twice daily. After 13 days the test is evaluated for the percentage damage caused to the plant.

[8] = tested on: Amaranthus retroflexus (AMARE); assay: Post-emergence Test (Table B2); conditions: evaluated after 13 days
Method: as §1

Setaria faberi (SETFA) [9] = assay: Post-emergence Test (Table B2); conditions: evaluated after 13 days
Method: as §1

[10] = tested on: Echinochloa crus-galli (ECHCG); assay: Post-emergence Test (Table B2); design: key: 5=81-100%; 4=61-80%; 3=41-60%; 2=21-40%; 1=0-20%; 0=inactive; conditions: evaluated after 13 days
Method: as §1

Zea mays (ZEAMX) [11] = assay: Post-emergence Test (Table B2); design: key: 5=81-100%; 4=61-80%; 3=41-60%; 2=21-40%; 1=0-20%; 0=inactive; conditions: evaluated after 13 days
Method: as §1

[12] = tested on: Ipomoea hederacea (IPOHE); assay: Post-emergence Test (Table B2); design: key: 5=81-100%; 4=61-80%; 3=41-60%; 2=21-40%; 1=0-20%; 0=inactive; conditions: evaluated after 13 days
Method: as §1

[13] = lower rate of 250 g per hectare

| SMILES | percentage damage caused to the plant, AMARE [1] | percentage damage caused to the plant, ZEAMX (Zea mays (ZEAMX) [2]) | percentage damage caused to the plant, SETFA (Setaria faberi (SETFA) [3]) | percentage damage caused to the plant, AMAPA [4] | percentage damage caused to the plant, IPOHE [5] | percentage damage caused to the plant, ECHCG [6] | percentage damage caused to the plant, AMAPA ([7]; 1000 g/ha) | percentage damage caused to the plant, AMARE ([8]; 1000 g/ha) | percentage damage caused to the plant, SETFA (Setaria faberi (SETFA) [9]; 1000 g/ha) | percentage damage caused to the plant, ECHCG ([10]; 1000 g/ha) | percentage damage caused to the plant, ZEAMX (Zea mays (ZEAMX) [11]; 1000 g/ha) | percentage damage caused to the plant, IPOHE ([12]; 1000 g/ha) | percentage damage caused to the plant, AMAPA [7, 13] | percentage damage caused to the plant, AMARE [8, 13] | percentage damage caused to the plant, SETFA (Setaria faberi (SETFA) [9]; [13]) | percentage damage caused to the plant, ECHCG [10, 13] | percentage damage caused to the plant, ZEAMX (Zea mays (ZEAMX) [11]; [13]) | percentage damage caused to the plant, IPOHE [12, 13] |
| --- | --- | --- | --- | --- | --- | --- | --- | --- | --- | --- | --- | --- | --- | --- | --- | --- | --- | --- |
| C=C(C)COC(=O)c1cc(-c2c(C)n(CC)c(-c3ccc(Cl)c(Cl)c3)c(C(=O)O)c2=O)c(F)cc1Cl [Compound 1, 5-[4-chloro-2-fluoro-5-(2-methylallyloxycarbonyl)phenyl]-2-(3,4-dichlorophenyl)-1-ethyl-6-methyl-4-oxo-pyridine-3-carboxylic acid] | 5 (5=81-100%) | 0 | 4 (4=61-80%) | 5 (5=81-100%) | 2 (2=21-40%) | 1 (1=0-20%) | 5 (5=81-100%) | 5 (5=81-100%) | 4 (4=61-80%) | 5 (5=81-100%) | 2 (2=21-40%) | 2 (2=21-40%) | – | – | – | – | – | – |
| C#CCOC(=O)c1cc(-c2c(C)n(CC)c(-c3ccc(Cl)c(Cl)c3)c(C(=O)O)c2=O)c(F)cc1Cl [Compound 2, 5-(4-chloro-2-fluoro-5-prop-2-ynoxycarbonyl-phenyl)-2-(3,4-dichlorophenyl)-1-ethyl-6-methyl-4-oxo-pyridine-3-carboxylic acid] | 5 (5=81-100%) | 0 | 1 (1=0-20%) | 5 (5=81-100%) | 0 | 0 | 5 (5=81-100%) | 5 (5=81-100%) | 5 (5=81-100%) | 4 (4=61-80%) | 5 (5=81-100%) | 4 (4=61-80%) | – | – | – | – | – | – |
| C=CCOC(=O)c1cc(-c2c(C)n(CC)c(-c3ccc(Cl)c(Cl)c3)c(C(=O)O)c2=O)c(F)cc1Cl [Compound 3, 5-(5-allyloxycarbonyl-4-chloro-2-fluoro-phenyl)-2-(3,4-dichlorophenyl)-1-ethyl-6-methyl-4-oxo-pyridine-3-carboxylic acid] | 5 (5=81-100%) | 0 | 1 (1=0-20%) | 5 (5=81-100%) | 2 (2=21-40%) | 0 | 5 (5=81-100%) | 5 (5=81-100%) | 5 (5=81-100%) | 5 (5=81-100%) | 4 (4=61-80%) | 4 (4=61-80%) | – | – | – | – | – | – |
| C=CC(C)OC(=O)c1ccc(F)c(-c2c(C)n(CC)c(-c3ccc(Cl)c(Cl)c3)c(C(=O)O)c2=O)c1 (centres unmarked) [Compound 5, 2-(3,4-dichlorophenyl)-1-ethyl-5-[2-fluoro-5-(1-methylallyloxycarbonyl)phenyl]-6-methyl-4-oxo-pyridine-3-carboxylic acid] | – | – | – | – | – | – | – | – | – | – | – | – | 3 (3=41-60%) | 2 (2=21-40%) | 1 (1=0-20%) | 0 | 2 (2=21-40%) | 1 (1=0-20%) |
| CCn1c(C)c(-c2cc(C(=O)OC(C)CN(C)C)ccc2F)c(=O)c(C(=O)O)c1-c1ccc(Cl)c(Cl)c1 (centres unmarked) [Compound 6, 2-(3,4-dichlorophenyl)-5-[5-[2-(dimethylamino)-1-methyl-ethoxy]carbonyl-2-fluoro-phenyl]-1-ethyl-6-methyl-4-oxo-pyridine-3-carboxylic acid] | – | – | – | – | – | – | 4 (4=61-80%) | 3 (3=41-60%) | 1 (1=0-20%) | 1 (1=0-20%) | 1 (1=0-20%) | 0 | – | – | – | – | – | – |
| CCn1c(C)c(-c2cc(C(=O)OC(C)C(F)(F)F)ccc2F)c(=O)c(C(=O)O)c1-c1ccc(Cl)c(Cl)c1 (centres unmarked) [Compound 7, 2-(3,4-dichlorophenyl)-1-ethyl-5-[2-fluoro-5-(2,2,2-trifluoro-1-methyl-ethoxy)carbonyl-phenyl]-6-methyl-4-oxo-pyridine-3-carboxylic acid] | 5 (5=81-100%) | 1 (1=0-20%) | 2 (2=21-40%) | 5 (5=81-100%) | 1 (1=0-20%) | 2 (2=21-40%) | 5 (5=81-100%) | 5 (5=81-100%) | 4 (4=61-80%) | 3 (3=41-60%) | 2 (2=21-40%) | 1 (1=0-20%) | – | – | – | – | – | – |
| CCn1c(C)c(-c2cc(C(=O)OC(C)C3CC3)ccc2F)c(=O)c(C(=O)O)c1-c1ccc(Cl)c(Cl)c1 (centres unmarked) [Compound 8, 5-[5-(1-cyclopropylethoxycarbonyl)-2-fluoro-phenyl]-2-(3,4-dichlorophenyl)-1-ethyl-6-methyl-4-oxo-pyridine-3-carboxylic acid] | 5 (5=81-100%) | 0 | 0 | 4 (4=61-80%) | 0 | 0 | 5 (5=81-100%) | 4 (4=61-80%) | 2 (2=21-40%) | 1 (1=0-20%) | 3 (3=41-60%) | 1 (1=0-20%) | – | – | – | – | – | – |
| CCn1c(C)c(-c2cc(C(=O)OC(C)C3CCCC3)ccc2F)c(=O)c(C(=O)O)c1-c1ccc(Cl)c(Cl)c1 (centres unmarked) [Compound 16, 5-[5-(1-cyclopentylethoxycarbonyl)-2-fluoro-phenyl]-2-(3,4-dichlorophenyl)-1-ethyl-6-methyl-4-oxo-pyridine-3-carboxylic acid] | – | – | – | – | – | – | 4 (4=61-80%) | 5 (5=81-100%) | 1 (1=0-20%) | 0 | 1 (1=0-20%) | 0 | – | – | – | – | – | – |
| C#CCC(C)OC(=O)c1ccc(F)c(-c2c(C)n(CC)c(-c3ccc(Cl)c(Cl)c3)c(C(=O)O)c2=O)c1 (centres unmarked) [Compound 17, 2-(3,4-dichlorophenyl)-1-ethyl-5-[2-fluoro-5-(1-methylbut-3-ynoxycarbonyl)phenyl]-6-methyl-4-oxo-pyridine-3-carboxylic acid] | 5 (5=81-100%) | 1 (1=0-20%) | 2 (2=21-40%) | 5 (5=81-100%) | 2 (2=21-40%) | 1 (1=0-20%) | 5 (5=81-100%) | 5 (5=81-100%) | 2 (2=21-40%) | 2 (2=21-40%) | 1 (1=0-20%) | – | – | – | – | – | – | – |
| CCn1c(C)c(-c2cc(C(=O)OC(C)C#N)ccc2F)c(=O)c(C(=O)O)c1-c1ccc(Cl)c(Cl)c1 (centres unmarked) [Compound 41, 5-[5-(1-cyanoethoxycarbonyl)-2-fluoro-phenyl]-2-(3,4-dichlorophenyl)-1-ethyl-6-methyl-4-oxo-pyridine-3-carboxylic acid] | – | – | – | – | – | – | – | – | – | – | – | – | 2 (2=21-40%) | 2 (2=21-40%) | 2 (2=21-40%) | 0 | 0 | 1 (1=0-20%) |
